Source: the supplement of paper PMC12325586

System: MIA PaCa-2
Method: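 MIA PaCa-2 Tet-on shOFD1 pancreatic cancer cells (2000 cells/well, 96-well) were treated with Selleck FDA-approved library compounds at 0, 1, 5, 10, 25 and 50 µM, with extra concentrations added where needed, for 72 h at 37 °C. Knockdown wells also received 100 ng/mL doxycycline; control wells received DMSO without doxycycline. Viability was read by CCK-8 absorbance at 450 nm and normalised to DMSO control wells. IC50 was fitted in GraphPad Prism as a 4-parameter logistic with bottom fixed at 0 and top fixed at 1; at least 3 technical replicate wells per condition.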

[1] = OFD1 knockdown: no (no doxycycline)
[2] = OFD1 knockdown: yes (Tet-on shOFD1, 100 ng/mL doxycycline)

Compound | IC50 cell viability [1] | IC50 cell viability [2]
CC1(C)CCC(c2ccc(Cl)cc2)=C(CN2CCN(c3ccc(C(=O)NS(=O)(=O)c4ccc(N[C@H](CCN5CCOCC5)CSc5ccccc5)c(S(=O)(=O)C(F)(F)F)c4)cc3)CC2)C1 [S1001] | 18.7 µM | 19 µM
Cc1ccc(F)c(NC(=O)Nc2ccc(-c3cccc4[nH]nc(N)c34)cc2)c1 [S1003] | 6.31 µM | 6.22 µM
C[C@]1(c2nc3c(C(N)=O)cccc3[nH]2)CCCN1 [S1004] | 77 µM | 44.1 µM
CNC(=O)c1ccccc1Sc1ccc2c(/C=C/c3ccccn3)n[nH]c2c1 [S1005] | 38.7 µM | 43.9 µM
CN1CCN(CCOc2cc(OC3CCOCC3)c3c(Nc4c(Cl)ccc5c4OCO5)ncnc3c2)CC1 [S1006] | 7.48 µM | 8.13 µM
Cn1cnc2c(F)c(Nc3ccc(Br)cc3Cl)c(C(=O)NOCCO)cc21 [S1008] | 1.66 µM | 1.44 µM
COC(=O)c1ccc2c(C(=Nc3ccc(N(C)C(=O)CN4CCN(C)CC4)cc3)c3ccccc3)c(O)[nH]c2c1 [S1010] | 4.96 µM | 4.24 µM
CN(C)C/C=C/C(=O)Nc1cc2c(Nc3ccc(F)c(Cl)c3)ncnc2cc1O[C@H]1CCOC1 [S1011] | 66.1 µM | 87.7 µM
COc1cc(Nc2c(C#N)cnc3cc(OCCCN4CCN(C)CC4)c(OC)cc23)c(Cl)cc1Cl [S1014] | 6.31 µM | 6.07 µM
COc1cc2c(Oc3ccc4[nH]c(C)cc4c3F)ncnc2cc1OCCCN1CCCC1 [S1017] | 13.1 µM | 13.5 µM
CN1CCN(c2ccc3nc(-c4c(N)c5c(F)cccc5[nH]c4=O)[nH]c3c2)CC1 [S1018] | 12.9 µM | 11.7 µM
Cc1nc(Nc2ncc(C(=O)Nc3c(C)cccc3Cl)s2)cc(N2CCN(CCO)CC2)n1 [S1021] | 0.81 µM | 0.61 µM
C#Cc1cccc(Nc2ncnc3cc(OCCOC)c(OCCOC)cc23)c1 [S1023] | 59.1 µM | 65.3 µM
COc1cc2ncnc(Nc3ccc(F)c(Cl)c3)c2cc1OCCCN1CCOCC1 [S1025] | 2.22 µM | 1.71 µM
Cc1ccc(NC(=O)c2ccc(CN3CCN(C)CC3)cc2)cc1Nc1nccc(-c2cccnc2)n1 [S1026] | 15 µM | 14.8 µM
CS(=O)(=O)CCNCc1ccc(-c2ccc3ncnc(Nc4ccc(OCc5cccc(F)c5)c(Cl)c4)c3c2)o1 [S1028] | 16.8 µM | 15 µM
Nc1cccc2c1CN(C1CCC(=O)NC1=O)C2=O (stereo not drawn) [S1029] | 44 µM | 42.9 µM
Cc1cn(-c2cc(NC(=O)c3ccc(C)c(Nc4nccc(-c5cccnc5)n4)c3)cc(C(F)(F)F)c2)cn1 [S1033] | 18.9 µM | 17.3 µM
CO[C@H]1C[C@@H]2CC[C@@H](C)[C@@](O)(O2)C(=O)C(=O)N2CCCC[C@H]2C(=O)O[C@H]([C@H](C)C[C@@H]2CC[C@@H](O)[C@H](OC)C2)CC(=O)[C@H](C)/C=C(\C)[C@@H](O)[C@@H](OC)C(=O)[C@H](C)C[C@H](C)/C=C/C=C/C=C/1C [S1039] | 0.56 µM | 0.54 µM
CNC(=O)c1cc(Oc2ccc(NC(=O)Nc3ccc(Cl)c(C(F)(F)F)c3)cc2)ccn1 [S1040] | 8.15 µM | 7.5 µM
CCN(CC)CCNC(=O)c1c(C)[nH]c(/C=C2\C(=O)Nc3ccc(F)cc32)c1C [S1042] | 2.85 µM | 2.98 µM
CO[C@H]1C[C@@H]2CC[C@@H](C)[C@@](O)(O2)C(=O)C(=O)N2CCCC[C@H]2C(=O)O[C@H]([C@H](C)C[C@@H]2CC[C@@H](OC(=O)C(C)(CO)CO)[C@H](OC)C2)CC(=O)[C@H](C)/C=C(\C)[C@@H](O)[C@@H](OC)C(=O)[C@H](C)C[C@H](C)/C=C/C=C/C=C/1C [S1044] | 27 µM | 24 µM

Compound | IC50 cell viability [1] | IC50 cell viability [2]
COc1cc2/c(=N/c3ccc(Br)cc3F)nc[nH]c2cc1OCC1CCN(C)CC1 [S1046] | 5.87 µM | 5.04 µM
O=C(CCCCCCC(=O)Nc1ccccc1)NO [S1047] | 5.55 µM | 5.13 µM
Cc1cc(Nc2cc(N3CCN(C)CC3)nc(Sc3ccc(NC(=O)C4CC4)cc3)n2)n[nH]1 [S1048] | 22.9 µM | 22.7 µM
Nc1ccccc1NC(=O)c1ccc(CNC(=O)OCc2cccnc2)cc1 [S1053] | 11 µM | 11.2 µM
Cn1cc(C2=C(c3cn(C4CCN(Cc5ccccn5)CC4)c4ccccc34)C(=O)NC2=O)c2ccccc21 [S1055] | 13.8 µM | 12.5 µM
O=C(c1cc(Cc2n[nH]c(=O)c3ccccc23)ccc1F)N1CCN(C(=O)C2CC2)CC1 [S1060] | 53.8 µM | 31.9 µM
Cc1ccc(NC(=O)c2ccc(CN3CCN(C)CC3)cc2)cc1Nc1nc(-c2cccnc2)cs1 [S1064] | 68.8 µM | 66.2 µM
CS(=O)(=O)N1CCN(Cc2cc3nc(-c4cccc5[nH]ncc45)nc(N4CCOCC4)c3s2)CC1 [S1065] | 10.2 µM | 7.9 µM
C[C@@H](Oc1cc(-c2cnn(C3CCNCC3)c2)cnc1N)c1c(Cl)ccc(F)c1Cl [S1068] | 1.73 µM | 1.39 µM
CS(=O)(=O)c1ccc(C(=O)Nc2ccc(Cl)c(-c3ccccn3)c2)c(Cl)c1 [S1082] | 61.8 µM | 69 µM
O=C(/C=C/c1cccc(S(=O)(=O)Nc2ccccc2)c1)NO [S1085] | 3.67 µM | 3.5 µM
NC(=O)c1ccc(I)c([N+](=O)[O-])c1 [S1087] | 69.1 µM | 51.3 µM
C[C@]1(O)C[C@@H](c2nc(-c3ccc4ccc(-c5ccccc5)nc4c3)c3c(N)nccn32)C1 [S1091] | 48.3 µM | 49.9 µM
Cn1cc(CNCC2CCN(c3ncc(C(=O)NO)cn3)CC2)c2ccccc21 [S1096] | 0.41 µM | 0.39 µM
CNCc1ccc(-c2[nH]c3cc(F)cc4c3c2CCNC4=O)cc1 [S1098] | 31.8 µM | 18.9 µM
Clc1ccc(Nc2nnc(Cc3ccncc3)c3ccccc23)cc1 [S1101] | 30.8 µM | 24.3 µM
CC(=O)c1c(C)c2cnc(Nc3ccc(N4CCNCC4)cn3)nc2n(C2CCCC2)c1=O [S1116] | 43.1 µM | 46.4 µM
CO[C@H]1C[C@@H]2CC[C@@H](C)[C@@](O)(O2)C(=O)C(=O)N2CCCC[C@H]2C(=O)O[C@H]([C@H](C)C[C@@H]2CC[C@@H](OCCO)[C@H](OC)C2)CC(=O)[C@H](C)/C=C(\C)[C@@H](O)[C@@H](OC)C(=O)[C@H](C)C[C@H](C)/C=C/C=C/C=C/1C [S1120] | 2.19 µM | 2.81 µM
Nc1ccccc1NC(=O)c1ccc(CNc2nccc(-c3cccnc3)n2)cc1 [S1122] | 1.29 µM | 1.07 µM
COCC[n+]1c2c(n(Cc3cnccn3)c1C)C(=O)c1ccccc1C2=O [S1130] | 0.82 µM | 0.92 µM
COc1cc(Nc2ncc3c(n2)-c2ccc(Cl)cc2C(c2c(F)cccc2OC)=NC3)ccc1C(=O)O [S1133] | 8.24 µM | 10.5 µM
CC(C)OC(=O)C(C(=O)OC(C)C)=C1SC=CS1 [S1137] | 38.1 µM | 36.1 µM
